A short description of data set [1]: Social memory (olfactory recognition) in naive rats. It counts as in vivo, rat. Particulars: 0.5, 1 and 5 mg/kg p.o., vs placebo, dose-dependent. The procedure:
Animals were kept at 21° C.±1, with an inverse light-dark cycle (light on from 2:00 P.M. to 2:00 A.M.). The sessions were conducted 7 hr into the dark part of the light/dark cycle, under red illumination. […] The time spent by the adult rat in investigating the juvenile rat was recorded. […] Thus under the influence of a purported memory enhancing drug, the time spent in investigating the same juvenile is expected to be reduced. […] Any reduction in social exploration of this different juvenile is thus considered as reflecting a nonspecific effect of the drug (i.e., not memory related). On no occasion was a subject tested twice with the same juvenile stimulus animal, nor was a juvenile used more than once in a 48-hr period. […] Time spent in social investigation of stimulus juvenile rat was measured (in sec) and then expressed for each animal as the ratio of the second exposure to the first exposure (Ratio of Investigation Duration (RID)). […] Analysis for repeated measurement was made by a 3-way ANOVA and post hoc comparisons were made by simple main effects contrasts analysis.

A short description of data set [2]: Morris water maze in C57BL/10SnJ (small hippocampus) vs C57BL6J mice. Format: in vivo. Particulars: for reversal test, swimming speed: normal hippocampi mice, AF150(S) 0.5 mg/kg, AF267B 1 mg/kg. The procedure:
C57BL/10SnJ (B10) mice were selected due to their small hippocampi and decreased number of hippocampal pyramidal neurons; the cell loss seemed to be associated with poor spatial learning.
Each group of mice was randomly divided into 7 treatment groups (n=12-14/group). […] All tested compounds and saline were administered once a day for 4 days before starting the behavioral testing, and then for the duration of the 5-day experiment, 30 minutes before testing.
Training: Each mouse was trained for four consecutive days, four trials (one block) per day, in which the platform position remained constant and was located in the center of the southeast quadrant of the pool. Within each block of four trials, each mouse started at each of the starting locations, but the sequence of locations was randomly selected. A trial consisted of placing a mouse by hand into the water facing the wall of the pool at one of four starting locations, north, south, east or west, around the pool's perimeter. Escape latency (the time to find the platform), path length (the distance traveled by the mouse) and speed (the swimming rate of the mouse) were recorded on each trial by the monitoring system.
For each mouse, the path length, escape latency, and swimming speed of the four trials on each of the 4 training days were grouped into blocks (one block for each day). […] Specific comparisons were performed, using the simple main effects contrasts analysis, which is specifically suited for testing significant interactions.
Transfer test. During trial No. 17, on the fourth day, the platform was entirely removed from the pool (a probe trial). In this trial, the mouse was placed into the water for a limited period (30 s), and its spatial bias was measured by recording the relative distribution of escape latency and path length over the four quadrants of the pool.
Reversal test. During trials 18-21, on the fifth day, the platform position was changed to the northwest quadrant, opposite to the training quadrant Thus, during reversal learning, the platform location was moved relative to the configuration of objects within the room, but the pool occupied the same place within the room throughout the entire experiment. Testing of the […] and measures taken were the same as in training.
For each mouse, the escape latency, path length and swimming speed of the reversal test (trials No. 18-21) were grouped into one block.

Another data set relates to tau. Description: Tau phosphorylation, AT8 immunoblot. Format: cell-based. Particulars: 100 μM; to the control level. An excerpt:
Following the experimental design of Sadot et al., J.Neurochem. […] By linking an M1 agonist to an antioxidant moiety tau phophorylation may be decreased, providing a new therapeutic strategy in a variety of CNS disease states due to combined damage due to oxidative stress and tau hyperphosphorylation.

Data set [3] can be described thus: Morris water maze in aged rats. It counts as in vivo, rat. Particulars: for reversal learning: AF267B 1 mg/kg, AF292 1 and 0.5 mg/kg po. The text has this:
Old (22-24 months old) and young (three months old) Sprague-Dawley rats had been tested in the MWM.

For another data set, the target named is rat M1 mAChR (Rattus norvegicus, UniProt P08482). Description: PI turnover, rat M1 mAChR. Format: cell-based.
Chain of rat M1 mAChR (P08482 whole entry): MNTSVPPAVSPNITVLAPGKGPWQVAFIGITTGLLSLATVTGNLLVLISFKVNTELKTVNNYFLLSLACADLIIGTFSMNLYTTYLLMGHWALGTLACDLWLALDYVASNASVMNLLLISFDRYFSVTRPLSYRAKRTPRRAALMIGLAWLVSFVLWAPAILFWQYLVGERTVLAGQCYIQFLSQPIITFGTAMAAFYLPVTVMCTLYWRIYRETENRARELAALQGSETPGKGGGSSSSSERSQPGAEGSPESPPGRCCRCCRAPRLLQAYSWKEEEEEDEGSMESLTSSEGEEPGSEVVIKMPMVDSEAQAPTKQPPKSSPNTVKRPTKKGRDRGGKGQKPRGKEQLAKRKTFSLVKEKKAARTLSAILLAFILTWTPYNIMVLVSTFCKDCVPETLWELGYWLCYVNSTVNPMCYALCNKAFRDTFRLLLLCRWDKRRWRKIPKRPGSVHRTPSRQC
Data set [4] is described as follows: CNS safety, general observation and Irwin test in rats. It counts as in vivo, rat. The procedure: AF292 was evaluated in rodents for possible effects on general behavior and other […] related pharmacological effects.
A further data set deals with T1, human M1 receptor (Homo sapiens, UniProt P11229).
T1 construct: expressed in transfected cells
T1 sequence (P11229 1-460): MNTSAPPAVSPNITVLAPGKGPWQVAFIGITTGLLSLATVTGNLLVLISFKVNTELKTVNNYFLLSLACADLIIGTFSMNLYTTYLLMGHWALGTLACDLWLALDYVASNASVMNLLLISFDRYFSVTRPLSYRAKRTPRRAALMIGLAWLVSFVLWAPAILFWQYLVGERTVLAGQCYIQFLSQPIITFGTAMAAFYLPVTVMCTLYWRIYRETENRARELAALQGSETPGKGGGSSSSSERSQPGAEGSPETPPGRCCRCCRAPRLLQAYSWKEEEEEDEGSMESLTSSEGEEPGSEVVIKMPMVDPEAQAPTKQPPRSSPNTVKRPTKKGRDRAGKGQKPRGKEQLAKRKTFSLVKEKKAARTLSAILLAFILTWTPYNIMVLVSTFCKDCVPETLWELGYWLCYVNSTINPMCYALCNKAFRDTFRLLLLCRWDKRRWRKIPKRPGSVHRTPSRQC
Description: Arachidonic acid (AA) release, human M1. It counts as cell-based.

Another data set concerns the target CYP3A4 (Homo sapiens, UniProt P08684). Description: P450 inhibition, microtiter plate. Format: in vitro ADME. Particulars: up to 10 μM. The procedure:
(§1) Cytochrome P450 activity can be an indicator for potential drug-drug interactions. AF292 was evaluated in a microtiter plate assay for P450 inhibition.

In a further data set the target is CYP1A2 (Homo sapiens, UniProt P05177). Description: P450 inhibition, microtiter plate. Particulars: up to 10 μM. It counts as in vitro ADME. The procedure: as §1
Chain of CYP1A2 (P05177 whole entry): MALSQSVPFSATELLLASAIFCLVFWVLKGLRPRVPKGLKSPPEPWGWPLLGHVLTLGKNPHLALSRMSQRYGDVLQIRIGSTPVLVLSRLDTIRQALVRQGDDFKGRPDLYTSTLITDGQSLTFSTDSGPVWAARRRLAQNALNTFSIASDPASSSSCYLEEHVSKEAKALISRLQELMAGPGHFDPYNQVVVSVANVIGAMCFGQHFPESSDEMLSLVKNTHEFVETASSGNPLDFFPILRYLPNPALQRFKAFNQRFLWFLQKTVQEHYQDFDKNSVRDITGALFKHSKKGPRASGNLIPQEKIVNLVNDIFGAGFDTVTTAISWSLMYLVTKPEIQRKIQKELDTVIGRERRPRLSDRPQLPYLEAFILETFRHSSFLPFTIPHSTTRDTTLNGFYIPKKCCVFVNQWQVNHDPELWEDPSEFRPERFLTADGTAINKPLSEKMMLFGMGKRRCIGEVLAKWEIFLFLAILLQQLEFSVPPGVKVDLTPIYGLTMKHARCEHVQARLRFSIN
For the next data set, the target named is CPY2D6 (Homo sapiens, UniProt P10635). Description: P450 inhibition, microtiter plate. Format: in vitro ADME. Particulars: up to 10 μM. The protocol:
as §1

A further data set has as its target CYP2C19 (Homo sapiens, UniProt P33261). Description: P450 inhibition, microtiter plate. Format: in vitro ADME. Particulars: up to 10 μM. The procedure:
as §1

The next data set has as its target CYP2C9 (Homo sapiens, UniProt P11712). Description: P450 inhibition, microtiter plate. It counts as in vitro ADME. Particulars: up to 10 μM. The procedure:
as §1

Where [5] appears, read: normal hippocampus mice, AF150(S) at 1 mg/kg.
Setting [6] is: small hippocampus mice, both doses.
The mark [7] stands for this setting: small hippocampus mice, AF150(S) both doses, AF267B the higher dose.
[8] abbreviates: small hippocampus mice, AF compounds 0.5 and 1 mg/kg i.p., rivastigmine, nicotine 1 mg/kg i.p.

Bounds are passed on as bounds.

Chain of CYP2C19 (P33261 whole entry): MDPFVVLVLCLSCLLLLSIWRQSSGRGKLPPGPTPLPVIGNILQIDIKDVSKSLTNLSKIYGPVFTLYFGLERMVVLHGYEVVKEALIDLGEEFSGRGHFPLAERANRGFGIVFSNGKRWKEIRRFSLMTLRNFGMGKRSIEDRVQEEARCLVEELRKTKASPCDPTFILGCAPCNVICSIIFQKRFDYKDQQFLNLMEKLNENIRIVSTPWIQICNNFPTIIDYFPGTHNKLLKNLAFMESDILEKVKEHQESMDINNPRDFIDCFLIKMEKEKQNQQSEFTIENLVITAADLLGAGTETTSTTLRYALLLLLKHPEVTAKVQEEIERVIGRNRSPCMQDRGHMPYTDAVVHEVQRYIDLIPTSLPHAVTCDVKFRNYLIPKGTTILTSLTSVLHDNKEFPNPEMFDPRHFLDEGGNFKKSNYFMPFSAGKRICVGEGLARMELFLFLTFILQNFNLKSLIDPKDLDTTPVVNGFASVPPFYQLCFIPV
Chain of CYP2C9 (P11712 whole entry): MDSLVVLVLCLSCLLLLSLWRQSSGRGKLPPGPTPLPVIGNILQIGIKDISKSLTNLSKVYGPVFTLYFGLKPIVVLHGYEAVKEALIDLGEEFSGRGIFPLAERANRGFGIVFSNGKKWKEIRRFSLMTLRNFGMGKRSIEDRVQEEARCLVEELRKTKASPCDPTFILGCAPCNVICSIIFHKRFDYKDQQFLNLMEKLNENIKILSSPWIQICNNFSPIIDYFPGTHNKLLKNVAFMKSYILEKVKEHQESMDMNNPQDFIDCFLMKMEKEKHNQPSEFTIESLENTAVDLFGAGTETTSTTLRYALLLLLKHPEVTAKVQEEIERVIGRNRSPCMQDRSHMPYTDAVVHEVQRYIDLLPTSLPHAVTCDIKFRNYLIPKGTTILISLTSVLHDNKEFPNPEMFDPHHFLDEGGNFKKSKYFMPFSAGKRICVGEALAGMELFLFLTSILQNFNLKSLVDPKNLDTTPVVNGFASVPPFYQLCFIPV
Chain of CPY2D6 (P10635 whole entry): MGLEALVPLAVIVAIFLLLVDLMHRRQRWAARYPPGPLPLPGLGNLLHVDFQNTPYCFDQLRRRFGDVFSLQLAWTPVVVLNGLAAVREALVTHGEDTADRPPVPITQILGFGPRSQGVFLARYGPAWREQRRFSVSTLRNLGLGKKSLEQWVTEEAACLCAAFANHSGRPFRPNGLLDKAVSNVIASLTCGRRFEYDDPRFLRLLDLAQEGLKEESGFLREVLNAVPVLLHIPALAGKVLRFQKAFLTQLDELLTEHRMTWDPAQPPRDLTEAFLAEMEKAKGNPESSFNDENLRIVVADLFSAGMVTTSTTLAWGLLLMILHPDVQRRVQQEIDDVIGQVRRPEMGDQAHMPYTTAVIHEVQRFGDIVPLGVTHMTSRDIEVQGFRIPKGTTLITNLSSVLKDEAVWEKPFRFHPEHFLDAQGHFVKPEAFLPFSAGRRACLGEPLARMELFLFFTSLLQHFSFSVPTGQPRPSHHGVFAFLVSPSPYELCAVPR
Chain of CYP3A4 (P08684 whole entry): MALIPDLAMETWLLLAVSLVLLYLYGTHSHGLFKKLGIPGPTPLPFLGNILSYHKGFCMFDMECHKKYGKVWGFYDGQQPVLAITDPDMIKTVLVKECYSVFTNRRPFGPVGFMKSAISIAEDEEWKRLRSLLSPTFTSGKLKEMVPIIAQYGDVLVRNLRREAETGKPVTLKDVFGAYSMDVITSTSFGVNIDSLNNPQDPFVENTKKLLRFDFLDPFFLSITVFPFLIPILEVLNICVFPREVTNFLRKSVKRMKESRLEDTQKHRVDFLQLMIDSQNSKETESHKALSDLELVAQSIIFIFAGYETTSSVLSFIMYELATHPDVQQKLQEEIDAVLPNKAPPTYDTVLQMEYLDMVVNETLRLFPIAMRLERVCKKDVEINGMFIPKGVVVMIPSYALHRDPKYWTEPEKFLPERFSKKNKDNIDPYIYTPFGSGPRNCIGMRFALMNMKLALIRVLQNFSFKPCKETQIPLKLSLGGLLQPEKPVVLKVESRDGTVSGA

With `CC1=NCC2(CCN(C)CC2)S1` [AF150(S), 2,8-Dimethyl-1-thia-3,8-diaza-spiro[4.5]dec-2-ene], the “investigation time of the same juvenile (RID)” value in [1] is “decreased the investigation time”. For the same compound, in [2], the “reversal test, swimming speed” value is listed as “significantly decreased”. Further, the figures for the “training, escape latency” value in [2] (normal hippocampus mice) and in [2] (setting [8]) were “increased the escape latencies” and “positively affected the training performance”, respectively. The entries for the “training, swimming speed” value in [2] (normal hippocampus mice) and in data set [2] (small hippocampus mice) were “impaired the swimming speed” and “enhancing effect of AF150(S) was equal in both doses”, respectively. The “reversal test, escape latency” value in [2] (normal hippocampus mice, AF150(S) at 0.5 mg/kg) is recorded as “impaired the escape latency”; in [2] (setting [6]) it was “improved the escape latency”. Besides, the “reversal test, path length” value in [2] (setting [5]) is recorded as “impairment of reversal learning”. Further, the entries for the “transfer test, spatial bias” value in data set [2] (setting [5]) and in data set [2] (small hippocampus mice) were “only a partial spatial bias” and “complete spatial bias”, respectively. Moreover, the “training, path length” value in data set [2] (normal hippocampus mice, AF150(S) only the higher dose) was “impaired the path length”; in data set [2] (setting [7]), “positively affected the performance”.

Consider `CC[C@@H]1SC2(CCN(C)CC2)NC1=O` [AF267B, (S)-2-ethyl-8-methyl-1-thia-4,8-diaza-spiro[4.5]decan-3-one], for which, in [1], the “investigation time of the same juvenile (RID)” value was “decreased the investigation time”. The “phosphorylated tau (AT8)” value in the data set on tau is “induce dephosphorylation of tau proteins”. Moreover, in data set [3], the swimming ability result is “no significant effect on the swimming ability” and the reversal learning entry is listed as “improved significantly the reversal learning”. The learning result in data set [3] (1 mg/kg) is “tendency for improvement”. For the same compound, the “PI turnover vs. CCh (as 100%)” value on rat M1 mAChR is listed as “PI, rat M1 mAChR: 75%”. Moreover, the “reversal test, swimming speed” value in data set [2] is “significantly decreased”. In addition, in data set [2] (normal hippocampus mice), the “training, escape latency” value is “did not significantly affect the escape latencies” and the “training, swimming speed” value is listed as “had no such effect”. Further, in [2] (small hippocampus mice), the “training, swimming speed” value is reported as “enhanced the swimming speed in a dose dependent manner” and the “transfer test, spatial bias” value is “complete spatial bias”. In addition, the “reversal test, escape latency” value in data set [2] (setting [6]) is “improved the escape latency”. Further, in data set [2] (setting [7]), the “training, path length” value was “positively affected the performance”. Further, the “training, escape latency” value in data set [2] (setting [8]) is listed as “positively affected the training performance”. Moreover, in [4] (rat, 100 mg/kg, p.o.), the “IRWIN TEST, duration of signs” value is given as “duration 3-6 hrs.)”; the “IRWIN TEST, onset of signs” value was “reduced startle response (onset: 0.5 hr;”; the “IRWIN TEST, signs (carriage, apathy, corneal reflex, diarrhea, grooming, urination, salivation, lacrimation, locomotor activity, respiration, startle)” value is on record as 100 mg/kg: abnormalities of carriage,. The “IRWIN TEST” value in data set [4] (rat, 1 & 10 mg/kg, p.o.) is 1 & 10 no effect on gross behavior. Moreover, in data set [4] (rat, p.o.), the “General Observation: Chromodacryorrhea, dose” value is reported as “Chromodacryorrhea: 100 mg/kg, p.o”; the “General Observation: Convulsion, dose” value is recorded as “Convulsion: 50 mg/kg, p.o”; the “General Observation: Gnawing, dose” value is on record as “Gnawing; 50 mg/kg, p.o”; the “General Observation: Hypothermia, dose” value is listed as “Hypothermia: 50 mg/kg, p.o”. Further, in data set [4] (rat, p.o.), the “General Observation: Lacrimation, dose” value is listed as “Lacrimation: 50 mg/kg, p.o”; the “General Observation: Mydriasis, dose” value is on record as “Mydriasis: 25 mg/kg, p.o”; the “General Observation: Salivation, dose” value is reported as “Salivation: 40 mg/kg, p.o”; the “General Observation: Sedation, dose” value is listed as “Sedation: 100 mg/kg, p.o”. For the same compound, the “dose at which effects begin (salivation and lacrimation)” value in data set [4] (rats, po, first hour) is listed as “about 40 mg/kg”. In addition, the “AA release vs. CCh (as 100%)” value at human M1 receptor came out at 100%.

In the case of `CC[C@@H]1SC2(CCNCC2)NC1=O` [AF292, (S)-2-Ethyl-1-thia-4,8-diaza-spiro[4.5]decan-3-one], the P450 inhibition entry on CYP3A4, at CYP1A2, on CPY2D6, at CYP2C19 and on CYP2C9 was “did not induce significant” in each case. Further, the “phosphorylated tau (AT8)” value in the data set with tau is listed as “induce dephosphorylation of tau proteins”. Moreover, the reversal learning entry in data set [3] is listed as “did not reach significance”. In data set [3] (both doses (1 and 0.5 mg/kg po)), the “probe trial, spatial bias” value was “tendency for partial spatial bias”. Besides, the “PI turnover vs. CCh (as 100%)” value on rat M1 mAChR was “PI, rat M1 mAChR; 50%”. For the same compound, the “physical or behavioral signs” value in data set [4] (rats, 1, 10, 30, 60, or 100 mg/kg orally) is on record as “No significant physical or behavioral signs”. Besides, the “AA release vs. CCh (as 100%)” value on human M1 receptor is more than 88%.

The values are drawn from US7439251B2, “Methods and compositions for treatment of central and peripheral nervous system disorders and novel compounds useful therefor” (Israel Institute for Biological Research, priority 2002, dated 2008).
